Results reported in patent US11180504B2 (ORCHID PHARMA LTD., priority 2016, dated 2021).
≈ marks a conversion by molar mass, not a printed value. Like-named read-outs stand apart in the source and are kept apart here.

Assays:
[1] = system: methicillin-sensitive Staphylococcus aureus; assay: MIC by broth micro-dilution (CLSI), methicillin-sensitive S. aureus; assay type: cell-based; conditions: MSSA S. aureus ATCC29213
[2] = system: carbapenemase producing K. pneumoniae; assay: MIC by broth micro-dilution (CLSI), carbapenemase producing K. pneumoniae; assay type: cell-based, Klebsiella pneumoniae
[3] = system: carbapenem sensitive Pseudomonas aeruginosa; assay: MIC by broth micro-dilution (CLSI), carbapenem sensitive P. aeruginosa; assay type: cell-based
[4] = system: carbapenem sensitive Escherichia coli; assay: MIC by broth micro-dilution (CLSI), carbapenem sensitive E. coli; assay type: cell-based
[5] = Staphylococcus aureus, ATCC 29213 / MSSA, read-out: MIC
[6] = Klebsiella pneumoniae, ATCCBAA1705, KPC-2 K. pneumoniae ATCC BAA-1705, read-out: MIC
[7] = Pseudomonas aeruginosa, ATCC27853, Meropenem susceptible P. aeruginosa ATCC27853, read-out: MIC
[8] = Escherichia coli, ATCC25922, ESBL −ve E. coli ATCC25922, read-out: MIC
[9] = KPC-2 K. pneumoniae ATCC BAA-1705
[10] = Meropenem susceptible P. aeruginosa ATCC27853
[11] = Staphylococcus aureus, ATCC29213|MSSA, read-out: MIC

Compound: C[C@@H](NC(=O)Cn1cnnn1)[C@H]1C(=O)N2C(C(=O)O)=C(S[C@@H]3CN[C@H](C(=O)N4CC5CCNCC5C4)C3)[C@H](C)[C@H]12 (single isomer, unassigned) [Example 527]
- MIC [1, 5]: 4 µg/mL (≈ 6.97 µM)
- MIC [2, 6]: 1 µg/mL (≈ 1.74 µM)
- MIC [3, 7]: 1 µg/mL (≈ 1.74 µM)
- MIC [4, 8]: 0.125 µg/mL (≈ 0.218 µM)

Compound: C[C@@H](NC(=O)Cn1cnnn1)[C@H]1C(=O)N2C(C(=O)O)=C(S[C@@H]3CN[C@H](C(=O)N4CC5CCNCC5C4)C3)[C@H](C)[C@H]12 (single isomer, unassigned) [Example 528]
- MIC [1]: 4 µg/mL (≈ 6.97 µM)
- MIC [2, 9]: 1 µg/mL (≈ 1.74 µM)
- MIC [3, 10]: 1 µg/mL (≈ 1.74 µM)
- MIC ([4]; ESBL −ve E. coli ATCC25922): 0.25 µg/mL (≈ 0.436 µM)

Compound: C[C@@H](NC(=O)Cn1cnnn1)[C@H]1C(=O)N2C(C(=O)O)=C(S[C@@H]3CN[C@H](C(=O)N4CC5(CC(N)CO5)C4)C3)[C@H](C)[C@H]12 (single isomer, unassigned) [Example 530]
- MIC [1, 5]: 2 µg/mL (≈ 3.47 µM)
- MIC [2, 6]: 1 µg/mL (≈ 1.74 µM)
- MIC [3, 7]: 0.5 µg/mL (≈ 0.869 µM)
- MIC [4, 8]: 0.25 µg/mL (≈ 0.434 µM)

Compound: C[C@@H](NC(=O)Cn1cnnn1)[C@H]1C(=O)N2C(C(=O)O)=C(S[C@@H]3CN[C@H](C(=O)N4CC5(CC(N)CO5)C4)C3)[C@H](C)[C@H]12 (single isomer, unassigned) [Example 531]
- MIC [1]: 4 µg/mL (≈ 6.95 µM)
- MIC [2, 9]: 2 µg/mL (≈ 3.47 µM)
- MIC [3, 10]: 1 µg/mL (≈ 1.74 µM)
- MIC ([4]; ESBL −ve E. coli ATCC25922): 0.125 µg/mL (≈ 0.217 µM)

Compound: C[C@@H](NC(=O)Cn1cnnn1)[C@H]1C(=O)N2C(C(=O)O)=C(S[C@@H]3CN[C@H](C(=O)N4CCC5CN(C[C@@H](O)CN)CCC54)C3)[C@H](C)[C@H]12 (single isomer, unassigned) [Example 532]
- MIC [1]: 4 µg/mL (≈ 6.18 µM)
- MIC [2, 9]: 2 µg/mL (≈ 3.09 µM)
- MIC [3, 10]: 2 µg/mL (≈ 3.09 µM)
- MIC ([4]; ESBL −ve E. coli ATCC25922): 0.25 µg/mL (≈ 0.387 µM)

Compound: C[C@@H](NC(=O)Cn1cnnn1)[C@H]1C(=O)N2C(C(=O)O)=C(S[C@@H]3CN[C@H](C(=O)N4CCC5CNCC5C4)C3)[C@H](C)[C@H]12 (single isomer, unassigned) [Example 533]
- MIC [1, 11]: 4 µg/mL (≈ 6.97 µM)
- MIC [2, 6]: 2 µg/mL (≈ 3.49 µM)
- MIC [3, 7]: 2 µg/mL (≈ 3.49 µM)
- MIC [4, 8]: 0.25 µg/mL (≈ 0.436 µM)

Compound: C[C@@H](NC(=O)Cn1cnnn1)[C@H]1C(=O)N2C(C(=O)O)=C(S[C@@H]3CN[C@H](C(=O)N4CCC5CNCC5C4)C3)[C@H](C)[C@H]12 (single isomer, unassigned) [Example 534]
- MIC [1]: 2 µg/mL (≈ 3.49 µM)
- MIC [2, 9]: 1 µg/mL (≈ 1.74 µM)
- MIC [3, 10]: 1 µg/mL (≈ 1.74 µM)
- MIC ([4]; ESBL −ve E. coli ATCC25922): 0.125 µg/mL (≈ 0.218 µM)

Compound: C[C@@H](NC(=O)Cn1cnnn1)[C@H]1C(=O)N2C(C(=O)O)=C(S[C@@H]3CN[C@H](C(=O)N4CCC5CNCC5(CO)C4)C3)[C@H](C)[C@H]12 (single isomer, unassigned) [Example 535]
- MIC [1, 11]: 2 µg/mL (≈ 3.31 µM)
- MIC [2, 6]: 2 µg/mL (≈ 3.31 µM)
- MIC [3, 7]: 1 µg/mL (≈ 1.66 µM)
- MIC [4, 8]: 0.25 µg/mL (≈ 0.414 µM)

Compound: C[C@@H](NC(=O)Cn1cnnn1)[C@H]1C(=O)N2C(C(=O)O)=C(S[C@@H]3CN[C@H](C(=O)N4CCC5CNCC5(CO)C4)C3)[C@H](C)[C@H]12 (single isomer, unassigned) [Example 537]
- MIC [1]: 4 µg/mL (≈ 6.63 µM)
- MIC [2, 9]: 2 µg/mL (≈ 3.31 µM)
- MIC [3, 10]: 2 µg/mL (≈ 3.31 µM)
- MIC ([4]; ESBL −ve E. coli ATCC25922): 0.25 µg/mL (≈ 0.414 µM)

Compound: C[C@@H](NC(=O)Cn1cnnn1)[C@H]1C(=O)N2C(C(=O)O)=C(S[C@@H]3CN[C@H](C(=O)N4CC5CCNCC5(CO)C4)C3)[C@H](C)[C@H]12 (single isomer, unassigned) [Example 539]
- MIC [1, 5]: 4 µg/mL (≈ 6.63 µM)
- MIC [2, 6]: 1 µg/mL (≈ 1.66 µM)
- MIC [3, 7]: 2 µg/mL (≈ 3.31 µM)
- MIC [4, 8]: 0.25 µg/mL (≈ 0.414 µM)

Compound: C[C@@H](NC(=O)Cn1cnnn1)[C@H]1C(=O)N2C(C(=O)O)=C(S[C@@H]3CN[C@H](C(=O)N4CC5CCNCC5(CO)C4)C3)[C@H](C)[C@H]12 (single isomer, unassigned) [Example 542]
- MIC [1]: 4 µg/mL (≈ 6.63 µM)
- MIC [2, 9]: 2 µg/mL (≈ 3.31 µM)
- MIC [3, 10]: 2 µg/mL (≈ 3.31 µM)
- MIC ([4]; ESBL −ve E. coli ATCC25922): 0.25 µg/mL (≈ 0.414 µM)

Compound: C[C@@H](NC(=O)Cn1cnnn1)[C@H]1C(=O)N2C(C(=O)O)=C(S[C@@H]3CN[C@H](C(=O)N4CC5CC(CO)NC5C4)C3)[C@H](C)[C@H]12 (single isomer, unassigned) [Example 551]
- MIC [1, 5]: 4 µg/mL (≈ 6.78 µM)
- MIC [2, 6]: 2 µg/mL (≈ 3.39 µM)
- MIC [3, 7]: 2 µg/mL (≈ 3.39 µM)
- MIC [4, 8]: 0.25 µg/mL (≈ 0.424 µM)

Compound: C[C@@H](NC(=O)Cn1cnnn1)[C@H]1C(=O)N2C(C(=O)O)=C(S[C@@H]3CN[C@H](C(=O)N4CC5CCNC5(CO)C4)C3)[C@H](C)[C@H]12 (single isomer, unassigned) [Example 555]
- MIC [1, 5]: 4 µg/mL (≈ 6.78 µM)
- MIC [2, 6]: 1 µg/mL (≈ 1.7 µM)
- MIC [3, 7]: 2 µg/mL (≈ 3.39 µM)
- MIC [4, 8]: 0.25 µg/mL (≈ 0.424 µM)

Compound: C[C@@H](NC(=O)Cn1cnnn1)[C@H]1C(=O)N2C(C(=O)O)=C(S[C@@H]3CN[C@H](C(=O)N4CC5CCNC5(CO)C4)C3)[C@H](C)[C@H]12 (single isomer, unassigned) [Example 556]
- MIC [1]: 2 µg/mL (≈ 3.39 µM)
- MIC [2, 9]: 1 µg/mL (≈ 1.7 µM)
- MIC [3, 10]: 4 µg/mL (≈ 6.78 µM)
- MIC ([4]; ESBL −ve E. coli ATCC25922): 0.125 µg/mL (≈ 0.212 µM)

Compound: C[C@@H](NC(=O)Cn1cnnn1)[C@H]1C(=O)N2C(C(=O)O)=C(SC3COC4(CNC4)C3)[C@H](C)[C@H]12 (single isomer, unassigned) [Example 557]
- MIC [1]: 4 µg/mL (≈ 8.63 µM)
- MIC [2, 6]: 4 µg/mL (≈ 8.63 µM)
- MIC [3, 10]: 16 µg/mL (≈ 34.5 µM)
- MIC ([4]; ESBL −ve E. coli ATCC25922): 0.125 µg/mL (≈ 0.27 µM)

Compound: C[C@@H](NC(=O)Cn1cnnn1)[C@H]1C(=O)N2C(C(=O)O)=C(SC3COC4(CNC4)C3)[C@H](C)[C@H]12 (single isomer, unassigned) [Example 558]
- MIC [1]: 16 µg/mL (≈ 34.5 µM)
- MIC [2, 9]: 2 µg/mL (≈ 4.31 µM)
- MIC [3, 10]: 128 µg/mL (≈ 276 µM)
- MIC ([4]; ESBL −ve E. coli ATCC25922): 0.5 µg/mL (≈ 1.08 µM)

Compound: C[C@@H](NC(=O)Cn1cnnn1)[C@H]1C(=O)N2C(C(=O)O)=C(S[C@@H]3CN[C@H](C(=O)N4CCC5CN(C(=N)N)CCC54)C3)[C@H](C)[C@H]12 (single isomer, unassigned) [Example 559]
- MIC [1, 5]: 1 µg/mL (≈ 1.62 µM)
- MIC [2, 6]: 1 µg/mL (≈ 1.62 µM)
- MIC [3, 10]: 4 µg/mL (≈ 6.5 µM)
- MIC [4, 8]: 0.25 µg/mL (≈ 0.406 µM)

Compound: C[C@@H](NC(=O)Cn1cnnn1)[C@H]1C(=O)N2C(C(=O)O)=C(S[C@@H]3CN[C@H](C(=O)N4CCC5CN(C(=N)N)CCC54)C3)[C@H](C)[C@H]12 (single isomer, unassigned) [Example 560]
- MIC [1]: 1 µg/mL (≈ 1.62 µM)
- MIC [2, 9]: 0.5 µg/mL (≈ 0.812 µM)
- MIC [3, 10]: 1 µg/mL (≈ 1.62 µM)
- MIC ([4]; ESBL −ve E. coli ATCC25922): 0.125 µg/mL (≈ 0.203 µM)

Compound: C[C@@H](NC(=O)Cn1cnnn1)[C@H]1C(=O)N2C(C(=O)O)=C(S[C@@H]3CN[C@H](C(=O)N4CCC5CNCC54CO)C3)[C@H](C)[C@H]12 (single isomer, unassigned) [Example 561]
- MIC [1, 5]: 4 µg/mL (≈ 6.78 µM)
- MIC [2, 6]: 2 µg/mL (≈ 3.39 µM)
- MIC [3, 7]: 8 µg/mL (≈ 13.6 µM)
- MIC [4, 8]: 0.5 µg/mL (≈ 0.848 µM)

Compound: C[C@@H](NC(=O)Cn1cnnn1)[C@H]1C(=O)N2C(C(=O)O)=C(S[C@@H]3CN[C@H](C(=O)N4CC5CCN(C(=N)N)C5C4)C3)[C@H](C)[C@H]12 (single isomer, unassigned) [Example 569]
- MIC [1, 5]: 2 µg/mL (≈ 3.32 µM)
- MIC [2, 6]: 1 µg/mL (≈ 1.66 µM)
- MIC [3, 7]: 2 µg/mL (≈ 3.32 µM)
- MIC [4, 8]: 0.25 µg/mL (≈ 0.415 µM)

Compound: C[C@@H](NC(=O)Cn1cnnn1)[C@H]1C(=O)N2C(C(=O)O)=C(S[C@@H]3CN[C@H](C(=O)N4CC5CCN(C(=N)N)C5C4)C3)[C@H](C)[C@H]12 (single isomer, unassigned) [Example 570]
- MIC [1]: 1 µg/mL (≈ 1.66 µM)
- MIC [2, 9]: 1 µg/mL (≈ 1.66 µM)
- MIC [3, 10]: 2 µg/mL (≈ 3.32 µM)
- MIC ([4]; ESBL −ve E. coli ATCC25922): 0.125 µg/mL (≈ 0.208 µM)

Compound: C[C@@H](NC(=O)Cn1cnnn1)[C@H]1C(=O)N2C(C(=O)O)=C(S[C@@H]3CN[C@H](C(=O)N4CCC(C(=O)NCC(O)CN)CC4)C3)[C@H](C)[C@H]12 (single isomer, unassigned) [Example 572]
- MIC [1, 5]: 4 µg/mL (≈ 6.17 µM)
- MIC [2, 6]: 2 µg/mL (≈ 3.08 µM)
- MIC [3, 10]: 4 µg/mL (≈ 6.17 µM)
- MIC [4, 8]: 0.25 µg/mL (≈ 0.385 µM)

Compound: C[C@@H](NC(=O)Cn1cnnn1)[C@H]1C(=O)N2C(C(=O)O)=C(S[C@@H]3CN[C@H](C(=O)N4CCC(C(=O)NCC(O)CN)CC4)C3)[C@H](C)[C@H]12 (single isomer, unassigned) [Example 573]
- MIC [1]: 4 µg/mL (≈ 6.17 µM)
- MIC [2, 9]: 2 µg/mL (≈ 3.08 µM)
- MIC [3, 10]: 1 µg/mL (≈ 1.54 µM)
- MIC ([4]; ESBL −ve E. coli ATCC25922): 0.125 µg/mL (≈ 0.193 µM)

Compound: C[C@@H](NC(=O)Cn1cnnn1)[C@H]1C(=O)N2C(C(=O)O)=C(S[C@@H]3CN[C@H](C(=O)N4CC5CCN(CCN)C5C4)C3)[C@H](C)[C@H]12 (single isomer, unassigned) [Example 578]
- MIC [1, 5]: 2 µg/mL (≈ 3.32 µM)
- MIC [2, 6]: 1 µg/mL (≈ 1.66 µM)
- MIC [3, 7]: 4 µg/mL (≈ 6.64 µM)
- MIC [4, 8]: 0.25 µg/mL (≈ 0.415 µM)
